Assay [1] deals with T1, ADAE (Agrobacterium sp. SUL3 D-allulose 3-epimerase) (Agrobacterium sp. SUL3, UniProt Z9QCC6USU8).
T1 construct: homotetramer; each subunit an (alpha/beta)8 barrel with Mg2+ site
T1 sequence (Z9QCC6USU8 1-284): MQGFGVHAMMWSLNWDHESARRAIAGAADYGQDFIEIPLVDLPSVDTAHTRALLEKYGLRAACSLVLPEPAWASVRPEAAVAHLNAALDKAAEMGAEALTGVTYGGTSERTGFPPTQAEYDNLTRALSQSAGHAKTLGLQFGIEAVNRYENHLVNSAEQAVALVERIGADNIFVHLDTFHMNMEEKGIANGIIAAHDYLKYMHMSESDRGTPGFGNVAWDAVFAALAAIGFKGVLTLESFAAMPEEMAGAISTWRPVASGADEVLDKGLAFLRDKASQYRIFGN
Put plainly: X-ray crystal structure of complex. The format is binding. The note with it: active site with Mg2+; PDB id not printed in main text.

Assay [2] addresses Agrobacterium sp. SUL3 D-allulose 3-epimerase (Agrobacterium sp. SUL3). Put plainly: crystal structure; X-ray crystal structures of ADAE alone and in complex with D-fructose or D-allulose; oligomer seen in the structure.

Regarding `O=C(CO)[C@H](O)[C@H](O)[C@H](O)CO` [D-allulose], the “X-ray crystal structure of complex” value in assay [1] is “X-ray crystal structures of ADAE alone and in complex with different ligands, including D‐fructose and D‐allulose”.
On the same count and under the same terms, as for `OCC1(O)OC[C@@H](O)[C@@H](O)[C@@H]1O` (stereo partly drawn) [D-fructose], the entry is “X-ray crystal structures of ADAE alone and in complex with different ligands, including D‐fructose and D‐allulose”.
Usually stoichiometry N stands for the number of molecules, sites or subunits per partner or assembly. In assay [2], “Agrobacterium sp. SUL3 D-allulose 3-epimerase (enzyme)” registered a stoichiometry N of 4.

For the origin of these results see paper PMC11005681, “Growth‐Coupled Evolutionary Pressure Improving Epimerases for D‐Allulose Biosynthesis Using a Biosensor‐Assisted In Vivo Selection Platform” (Advanced Science, 2024).
